# Measurements: publication PMC2641037 (Pharmacogenetics and genomics, 2009)
# Counter-ions that a name gives are not always drawn. Like-named read-outs stand apart in the source and are kept apart here.
# How the values were obtained:
# Caco-2 cells = details: for Papp±SD of montelukast (% of control) / effect on permeability of montelukast: 125 µM competitor; for Papp±SD of montelukast (% of control) / montelukast permeability, % of control: Caco-2; for Papp±SD of montelukast (% of control): control without additional drug; for effect on permeability of montelukast: Caco-2, p<0.05
# OATP2B1 [1] = target: T1, OATP2B1 (Homo sapiens, UniProt O94956); experiment: Permeability in OATP2B1 expressing MDCKII cell line; details: basolateral → apical, pH 7.5, 1 h 37°C
# T1 sequence (O94956 1-709): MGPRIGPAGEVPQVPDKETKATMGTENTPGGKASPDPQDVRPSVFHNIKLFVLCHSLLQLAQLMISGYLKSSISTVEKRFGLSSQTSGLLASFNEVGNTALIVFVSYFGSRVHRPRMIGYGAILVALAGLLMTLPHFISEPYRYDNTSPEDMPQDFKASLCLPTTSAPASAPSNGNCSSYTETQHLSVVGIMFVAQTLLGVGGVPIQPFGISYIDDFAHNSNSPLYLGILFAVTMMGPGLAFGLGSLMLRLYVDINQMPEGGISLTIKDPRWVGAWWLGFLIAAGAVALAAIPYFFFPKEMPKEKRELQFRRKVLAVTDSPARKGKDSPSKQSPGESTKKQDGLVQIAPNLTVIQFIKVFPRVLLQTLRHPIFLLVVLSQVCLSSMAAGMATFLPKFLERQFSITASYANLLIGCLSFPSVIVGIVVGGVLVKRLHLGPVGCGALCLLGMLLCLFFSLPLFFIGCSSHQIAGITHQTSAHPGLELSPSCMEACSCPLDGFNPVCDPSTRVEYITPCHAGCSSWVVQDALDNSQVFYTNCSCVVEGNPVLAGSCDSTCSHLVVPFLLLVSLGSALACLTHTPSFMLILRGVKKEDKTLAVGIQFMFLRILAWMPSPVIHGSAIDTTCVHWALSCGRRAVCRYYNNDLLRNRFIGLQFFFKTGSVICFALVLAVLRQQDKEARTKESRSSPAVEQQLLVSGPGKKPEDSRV
# [2] = weak acid; cited from earlier work
# [3] = can approach; cited from earlier work
# MDR1 = MDR1 (Homo sapiens, UniProt P08183); experiment: ATP consumption by membrane preparations containing MDR1; assay type: biochemical; details: data not shown
# [4] = cited from earlier work
# OATP2B1 [5] = details: up; substrate dependent; cited from earlier work
# Sequence of MDR1 (P08183 whole entry, species assumed): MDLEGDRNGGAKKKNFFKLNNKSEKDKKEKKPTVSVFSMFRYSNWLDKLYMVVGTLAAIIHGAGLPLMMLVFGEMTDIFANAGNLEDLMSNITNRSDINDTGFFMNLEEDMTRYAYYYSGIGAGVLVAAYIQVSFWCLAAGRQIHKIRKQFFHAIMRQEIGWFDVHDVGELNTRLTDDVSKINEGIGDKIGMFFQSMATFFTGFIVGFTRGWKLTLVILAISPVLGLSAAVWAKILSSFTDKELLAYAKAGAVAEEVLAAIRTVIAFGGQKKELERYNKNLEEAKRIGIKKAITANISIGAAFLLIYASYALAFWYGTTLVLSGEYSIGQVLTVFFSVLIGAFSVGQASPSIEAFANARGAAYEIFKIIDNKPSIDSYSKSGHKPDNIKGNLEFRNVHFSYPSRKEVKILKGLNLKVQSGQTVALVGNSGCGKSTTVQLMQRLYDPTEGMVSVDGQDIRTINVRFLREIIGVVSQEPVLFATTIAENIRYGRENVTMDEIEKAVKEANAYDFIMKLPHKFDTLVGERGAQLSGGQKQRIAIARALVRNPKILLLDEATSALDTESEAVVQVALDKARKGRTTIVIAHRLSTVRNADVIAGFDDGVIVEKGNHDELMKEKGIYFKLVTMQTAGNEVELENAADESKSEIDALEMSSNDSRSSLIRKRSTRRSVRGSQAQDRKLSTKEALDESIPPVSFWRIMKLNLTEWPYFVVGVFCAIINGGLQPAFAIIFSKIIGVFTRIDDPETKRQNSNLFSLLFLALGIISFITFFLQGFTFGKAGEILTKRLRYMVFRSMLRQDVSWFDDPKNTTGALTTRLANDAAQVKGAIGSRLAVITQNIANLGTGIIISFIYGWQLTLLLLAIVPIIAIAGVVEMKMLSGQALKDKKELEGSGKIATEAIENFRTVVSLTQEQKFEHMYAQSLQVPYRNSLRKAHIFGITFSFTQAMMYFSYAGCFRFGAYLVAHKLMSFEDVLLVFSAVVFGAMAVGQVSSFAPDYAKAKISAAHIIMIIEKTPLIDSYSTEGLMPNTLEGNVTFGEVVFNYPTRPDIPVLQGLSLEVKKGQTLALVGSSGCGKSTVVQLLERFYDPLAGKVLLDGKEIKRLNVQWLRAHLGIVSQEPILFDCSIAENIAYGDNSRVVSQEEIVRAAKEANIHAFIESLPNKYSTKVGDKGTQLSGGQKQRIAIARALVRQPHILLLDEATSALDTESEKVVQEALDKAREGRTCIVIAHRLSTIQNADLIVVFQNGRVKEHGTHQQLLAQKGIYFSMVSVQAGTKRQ
Papp±SD of montelukast (% of control) (Caco-2 cells),effect on permeability of montelukast (Caco-2 cells),SMILES,other results
100±10 % of control,–,"CCCCNc1cc(C(=O)O)cc(S(N)(=O)=O)c1Oc1ccccc1 [Bumetanide, bumetanide]",–
90±10 % of control,–,"C[C@H](CCC(=O)O)[C@H]1CC[C@H]2[C@@H]3[C@H](O)C[C@@H]4C[C@H](O)CC[C@]4(C)[C@H]3CC[C@]12C [Chenodeoxycholic acid, chenodeoxycholic acid, sodium salt]",–
120±10 % of control,enhance permeability,"CN/C(=N/CCSCc1nc[nH]c1C)NC#N [Cimetidine, cimetidine]",–
100±20 % of control,–,"O=S(=O)(O)c1cc(N=C=S)ccc1C=Cc1ccc(N=C=S)cc1S(=O)(=O)O [DIDS, 4,4'-Diisothiocyanostilbene-2,2'-disulfonic acid]",–
110±10 % of control,–,"C[C@H](CCC(=O)O)[C@H]1CC[C@H]2[C@@H]3CC[C@@H]4C[C@H](O)CC[C@]4(C)[C@H]3C[C@H](O)[C@]12C [Deoxycholic acid, deoxycholic acid, sodium salt]",–
–,–,"C[C@]12CC[C@@H]3c4ccc(OS(=O)(=O)[O-])cc4CC[C@H]3[C@@H]1CCC2=O.[Na+] [Estrone 3-sulfate, estrone 3-sulfate, sodium salt]",enhancement of permeability in OATP2B1 expressing cell line relative to control (OATP2B1 [1]): 280±40%
100±10 % of control,–,"C=C(CC)C(=O)c1ccc(OCC(=O)O)c(Cl)c1Cl [Ethacrynic acid, ethacrynic acid]",–
130±20 % of control,enhance permeability,"Nc1nc2ncc(CNc3ccc(C(=O)N[C@@H](CCC(=O)O)C(=O)O)cc3)nc2c(=O)[nH]1 [Folic acid, folic acid]",–
95±8 % of control,–,"NS(=O)(=O)c1cc(C(=O)O)c(NCc2ccco2)cc1Cl [Furosemide, furosemide]",–
110±10 % of control,–,"O=c1c(-c2ccc(O)cc2)coc2cc(O)cc(O)c12 [Genistein, genistein]",–
130±10 % of control,enhance permeability,"CN(C)C(=O)CCSC(SCCC(=O)O)c1cccc(/C=C/c2ccc3ccc(Cl)cc3n2)c1 (stereo not drawn) [MK571, MK571, sodium salt]",–
83±8 % of control,cis-inhibit permeability,"CC[C@H](C)C(=O)O[C@H]1C[C@H](O)C=C2C=C[C@H](C)[C@H](CC[C@@H](O)C[C@@H](O)CC(=O)O)[C@H]21 [Pravastatin, pravastatin]",–
90±10 % of control,–,"CCCN(CCC)S(=O)(=O)c1ccc(C(=O)O)cc1 [Probenecid, probenecid]",–
–,–,"CC(C)(O)c1ccccc1CC[C@@H](SCC1(CC(=O)O)CC1)c1cccc(/C=C/c2ccc3ccc(Cl)cc3n2)c1 [montelukast, Montelukast]","pKa [2]: 5.7; poor response rate [3]: 60 to 70%; permeability in MDCKII-OATP2B1, % of control (parental MDCKII) (OATP2B1 [1]): 140±20 % of control; stimulation of ATP consumption by MDR1 membrane preparations (MDR1): does not stimulate ATP consumption; binding to plasma albumin [4]: highly bound"
–,–,CC(=O)[C@H]1CC[C@H]2[C@@H]3CCC4=CC(=O)CC[C@]4(C)[C@H]3CC[C@]12C [progesterone],"montelukast permeability, % of control (Caco-2 cells; 5 µM progesterone in donor reservoir): 150±10 % of control; montelukast permeability, % of control (Caco-2 cells; 15 µM progesterone in donor reservoir): 140±10 % of control; montelukast permeability, % of control (Caco-2 cells; 30 µM progesterone in donor reservoir): 160±10 % of control; allosteric activation of OATP2B1 transport of estrone-3-sulfate (OATP2B1 [5]): up to 300%"

SMILES,Papp±SD of montelukast (% of control) (Caco-2 cells),effect on permeability of montelukast (Caco-2 cells),other results
"O=C1OC(c2ccc(O)c(S(=O)(=O)O)c2)(c2ccc(O)c(S(=O)(=O)O)c2)c2c(Br)c(Br)c(Br)c(Br)c21 [Sulfobromophthalein, sulfobromophthalein]",72±7 % of control,cis-inhibit permeability,–
"C[C@H](CCC(=O)NCCS(=O)(=O)O)[C@H]1CC[C@H]2[C@@H]3[C@H](O)C[C@@H]4C[C@H](O)CC[C@]4(C)[C@H]3C[C@H](O)[C@]12C [Taurocholic acid, taurocholic acid, sodium salt]",84±9 % of control,cis-inhibit permeability,–
